Laboratory results reported in patent US9718790B2, “Triazine derivative and pharmaceutical composition having an analgesic activity comprising the same” (SHIONOGI & CO., LTD., priority 2010, dated 2017).

Each compound was assayed against human P2X3 receptor (Homo sapiens (Human), UniProt P56373) (assay: Evaluation of human P2X3 receptor inhibitory activity (Fluo-3 calcium fluorescence, FDSS 3000, ATP stimulation)). Settings: C6BU-1 cells stably expressing human P2X3 receptor.
Assay type: cell-based
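Note: stimulus was 50 nM ATP with fluorescence followed for 3 min, and the response per well was peak post-ATP fluorescence divided by the reading at measurement start.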

Sequence of human P2X3 receptor (P56373 whole entry): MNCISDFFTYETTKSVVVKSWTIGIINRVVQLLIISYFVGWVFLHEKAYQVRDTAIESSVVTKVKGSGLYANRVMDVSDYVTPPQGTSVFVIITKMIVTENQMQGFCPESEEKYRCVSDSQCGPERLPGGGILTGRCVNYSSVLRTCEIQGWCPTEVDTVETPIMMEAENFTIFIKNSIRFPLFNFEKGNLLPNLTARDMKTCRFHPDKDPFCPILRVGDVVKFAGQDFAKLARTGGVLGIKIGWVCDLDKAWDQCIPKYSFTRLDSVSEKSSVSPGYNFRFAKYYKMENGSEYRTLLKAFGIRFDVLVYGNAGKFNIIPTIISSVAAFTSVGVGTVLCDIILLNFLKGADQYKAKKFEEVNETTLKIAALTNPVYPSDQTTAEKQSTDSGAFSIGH

Which IC50 does the source give for `CCn1c(=O)[nH]/c(=N\c2ccc(Oc3ccc(S(N)(=O)=O)cc3)cc2)n(Cc2ccc(Cl)cc2)c1=O` [Compound I-1993] here?
Its IC50 is 6 nM.

With `Cc1ccc(Oc2ccc(/N=c3\[nH]c(=O)n(CC(=O)NCCO)c(=O)n3Cc3ccc(Cl)cc3)cc2)cn1` [Compound I-1980] as the compound, how does the IC50 read?
The IC50 was 7 nM.

`Cc1ccc(Cn2c(=O)n(CCC(=O)O)c(=O)[nH]/c2=N\c2ccc(OC3CCC3)c(Cl)c2)cc1` [Compound I-1332] was tested. Which IC50 did it give?
Its IC50 is 54 nM.

Which IC50 does the source give for `COC(=O)[C@H](C)[C@H](C)n1c(=O)[nH]/c(=N\c2ccc(Oc3cccnc3)cc2)n(Cc2ccc(Cl)cc2)c1=O` [Compound I-1377] here?
Its IC50 is 7 nM.

`O=C(O)CCn1c(=O)[nH]/c(=N\c2ccc(Oc3ccnc(O)c3)cc2)n(Cc2ccc(Cl)cc2)c1=O` [Compound I-1441] was tested. Which IC50 did it give?
The IC50 was 9 nM.

For `Cc1ccc(Cn2c(=O)n([C@H](C)[C@H](C)C(=O)O)c(=O)[nH]/c2=N\c2ccc(CC(C)C)c(Cl)c2)cc1` [Compound I-1444], which IC50 is on record?
Its IC50 is 4 nM.

With `CC(C)Oc1ccc(/N=c2\[nH]c(=O)n(CCC(=O)O)c(=O)n2CC2CCCCCCC2)cc1F` [Compound I-1916] as the compound, how does the IC50 read?
The IC50 was 995 nM.

`Cc1ccc(Cn2c(=O)n(C[C@H](C)C(=O)O)c(=O)[nH]/c2=N\c2ccc(OC3COC3)cc2)cc1` [Compound I-1221] was tested. Which IC50 did it give?
The IC50 was 117 nM.

With `Cc1ccc(Cn2c(=O)n(CCCO)c(=O)[nH]/c2=N\c2ccc(O[C@H](C)C(F)(F)F)cc2)cc1` [Compound I-1953] as the compound, how does the IC50 read?
Its IC50 is 16 nM.

For `COC(=O)[C@@H](C)Cn1c(=O)[nH]/c(=N\c2ccc(OCCO)cc2)n(Cc2ccc(Cl)cc2)c1=O` [Compound I-0719], which IC50 is on record?
Its IC50 is 115 nM.

For `CC(C)Oc1ccc(/N=c2\[nH]c(=O)n(CCCS(=O)(=O)O)c(=O)n2Cc2ccc(Cl)cc2)cc1F` [Compound I-0645], which IC50 is on record?
The IC50 was 102 nM.

`Cc1ccc(Cn2c(=O)n(C[C@H](C)C(=O)O)c(=O)[nH]/c2=N\c2ccc3nc(C)sc3c2)cc1` [Compound I-1473] was tested. Which IC50 did it give?
Its IC50 is 12 nM.

`COC(=O)[C@H](C)[C@H](C)n1c(=O)[nH]/c(=N\c2ccc(N3CCCCC3)cc2)n(Cc2ccc(C)cc2)c1=O` [Compound I-1381] was tested. Which IC50 did it give?
The IC50 was 20 nM.

For `NC(=O)Cn1c(=O)[nH]/c(=N\c2ccc(Oc3ccnc(O)c3)cc2)n(Cc2ccc(Cl)cc2)c1=O` [Compound I-1977], which IC50 is on record?
Its IC50 is 5 nM.

`Cc1ccc(Cn2c(=O)n(CCC(=O)O)c(=O)[nH]/c2=N\c2ccc(OC(C)C)cc2F)cc1` [Compound I-2049] was tested. Which IC50 did it give?
Its IC50 is 85 nM.

Which IC50 does the source give for `Cc1ccc(Oc2ccc(/N=c3\[nH]c(=O)n(CCC(=O)O)c(=O)n3Cc3ccc(Cl)cc3)cc2)cn1` [Compound I-1357] here?
Its IC50 is 25 nM.

How did the IC50 turn out when `Cc1cc(/N=c2\[nH]c(=O)n(C[C@@H](C)C(=O)O)c(=O)n2CC2CCCCC2)ccc1OC(C)C` [Compound I-0647] was run?
The IC50 was 316 nM.

How did the IC50 turn out when `Cc1ccc(Cn2c(=O)n([C@@H](C)[C@@H](C)C(=O)O)c(=O)[nH]/c2=N\c2ccc3nc(C)ccc3c2)cc1` [Compound I-1352] was run?
Its IC50 is 26 nM.

How did the IC50 turn out when `CCc1ccc(/N=c2\[nH]c(=O)n(C[C@H](C)C(=O)OC)c(=O)n2Cc2ccc(Cl)cc2)cc1C` [Compound I-0815] was run?
Its IC50 is 189 nM.

How did the IC50 turn out when `C[C@H](C(=O)O)[C@@H](C)n1c(=O)[nH]/c(=N\c2ccc(N3CCCCC3)cc2)n(Cc2ccc(Cl)cc2)c1=O` [Compound I-1458] was run?
Its IC50 is 25 nM.

With `COC(=O)[C@@H](C)Cn1c(=O)[nH]/c(=N\c2ccc3oc(C)cc3c2)n(Cc2ccc(C)cc2)c1=O` [Compound I-0671] as the compound, how does the IC50 read?
The IC50 was 15 nM.

With `Cc1ccc(Oc2ccc(/N=c3\[nH]c(=O)n(CC(C)(C)C(=O)O)c(=O)n3Cc3ccc(Cl)cc3)cc2)cn1` [Compound I-1358] as the compound, how does the IC50 read?
Its IC50 is 9 nM.

Same assay, conditions: C6BU-1 cells stably expressing human P2X3 receptor, Fluo-3 fluorescence, FDSS 3000

`CCOC(=O)CCn1c(=O)[nH]/c(=N\c2ccc3nc(C4CC4)sc3c2)n(Cc2ccc(C)cc2)c1=O` [Compound I-1559] was tested. Which IC50 did it give?
The IC50 was 5 nM.

For `Cc1cc(/N=c2\[nH]c(=O)n(CCC(=O)O)c(=O)n2Cc2ccc(Cl)cc2)ccc1OC(C)C` [Compound I-1157], which IC50 is on record?
The IC50 was 52 nM.

`CSc1cccc(/N=c2\[nH]c(=O)n(C[C@H](C)C(=O)O)c(=O)n2Cc2ccc(Cl)cc2)c1` [Compound I-1152] was tested. Which IC50 did it give?
The IC50 was 110 nM.

For `Cc1nc2ccc(/N=c3\[nH]c(=O)n(CCC4COC(C)(C)OC4)c(=O)n3Cc3ccc(Cl)cc3)cc2s1` [Compound I-1852], which IC50 is on record?
Its IC50 is 5 nM.

Which IC50 does the source give for `Cc1ccc(Cn2c(=O)n(CCC(=O)O)c(=O)[nH]/c2=N\c2ccc(OCC3CC3)cc2)cc1` [Compound I-1148] here?
Its IC50 is 86 nM.

How did the IC50 turn out when `CCOC(=O)CCn1c(=O)[nH]/c(=N\c2ccc(OC(C)C)c(F)c2)n(CC2C[C@H]3CC[C@@H]2C3)c1=O` (stereo partly shown) [Compound I-1860] was run?
Its IC50 is 150 nM.

Which IC50 does the source give for `CCn1c(=O)[nH]/c(=N\c2ccc(Oc3ccnc(C)c3)cc2)n(Cc2ccc(Cl)cc2)c1=O` [Compound I-1598] here?
The IC50 was 5 nM.

For `Cc1ccc(Cn2c(=O)n(C[C@H](C)C(=O)O)c(=O)[nH]/c2=N\c2ccc(Cl)c(Cl)c2)cc1` [Compound I-1004], which IC50 is on record?
Its IC50 is 85 nM.

With `O=c1[nH]/c(=N\c2ccc(Oc3ccc(O)nc3)cc2)n(Cc2ccc(Cl)cc2)c(=O)n1CCO` [Compound I-1789] as the compound, how does the IC50 read?
The IC50 was 30 nM.

How did the IC50 turn out when `CCc1cc(/N=c2\[nH]c(=O)n(C[C@H](C)C(=O)O)c(=O)n2Cc2ccc(C)cc2)ccc1OC(C)C` [Compound I-0911, (S)-1-(4-methylbenzyl)-6-(3-ethyl-4-isopropoxyphenylimino)-3-(2-hydroxycarbonylpropyl)-1,3,5-triazinane-2,4-dion] was run?
Its IC50 is 15 nM.

How did the IC50 turn out when `Cc1ccc(Cn2c(=O)n(C[C@H](C)C(=O)O)c(=O)[nH]/c2=N\c2ccc(N3CCCC3)cc2)cc1` [Compound I-1091] was run?
Its IC50 is 179 nM.

For `Cc1ccc(Cn2c(=O)n(CCC(=O)O)c(=O)[nH]/c2=N\c2ccc3nc(C4CC4)sc3c2)cc1` [Compound I-1561], which IC50 is on record?
Its IC50 is 32 nM.

Which IC50 does the source give for `CCOc1ccc(/N=c2\[nH]c(=O)n(CC(CO)CO)c(=O)n2Cc2ccc(Cl)cc2)cc1Cl` [Compound I-1906] here?
The IC50 was 6 nM.

How did the IC50 turn out when `CCCOc1ccc(/N=c2\[nH]c(=O)n([C@@H](C)[C@@H](C)C(=O)O)c(=O)n2Cc2ccc(Cl)cc2)cc1` [Compound I-0920] was run?
Its IC50 is 37 nM.

Which IC50 does the source give for `CCCCCOc1ccc(/N=c2\[nH]c(=O)n(CCC(=O)OCC)c(=O)n2Cc2ccc(C)cc2)cc1` [Compound I-1058] here?
Its IC50 is 43 nM.

For `COC(=O)Cn1c(=O)[nH]/c(=N\c2ccc(Oc3ccnc(C)c3)cc2)n(Cc2ccc(Cl)cc2)c1=O` [Compound I-1754], which IC50 is on record?
The IC50 was 5 nM.

Same assay, conditions: human P2X3 receptor, Test Example 1

How did the IC50 turn out when `Cc1ccc(Cn2c(=O)n(C)c(=O)[nH]/c2=N\c2ccc(Oc3cnc(C(=O)O)cn3)cc2)cc1` [Compound I-2385] was run?
Its IC50 is 13 nM.

For `Cc1ccc(Cn2c(=O)n(C[C@H](C)C(=O)O)c(=O)[nH]/c2=N\c2ccc(Oc3ccc(O)nc3)cc2)cc1` [Compound I-1536], which IC50 is on record?
Its IC50 is 24 nM.

Which IC50 does the source give for `Cc1ccc(Cn2c(=O)n(C[C@H](C)C(=O)O)c(=O)[nH]/c2=N\c2ccc(CC(C)C)cc2)cc1` [Compound I-0872] here?
Its IC50 is 81 nM.

Which IC50 does the source give for `CCn1c(=O)[nH]/c(=N\c2ccc(Oc3nc(C(=O)O)cs3)cc2)n(C[C@H]2CC[C@H](C)CC2)c1=O` [Compound I-2348] here?
Its IC50 is 4 nM.

`CCn1c(=O)[nH]/c(=N\c2ccc(Oc3cc(C)nn3C)cc2)n(Cc2ccc(Cl)cc2)c1=O` [Compound I-2367] was tested. Which IC50 did it give?
The IC50 was 128 nM.

Which IC50 does the source give for `Cc1ccc(Cn2c(=O)n(CCC(=O)O)c(=O)[nH]/c2=N\c2ccc(Oc3cc(C#N)ccn3)cc2)cc1` [Compound I-2661] here?
Its IC50 is 15 nM.

How did the IC50 turn out when `CCn1c(=O)[nH]/c(=N\c2ccc(Oc3cncc(C(N)=O)c3)cc2)n(Cc2ccc(Cl)cn2)c1=O` [Compound I-2236] was run?
Its IC50 is 62 nM.

For `COC(=O)[C@@H](C)n1c(=O)[nH]/c(=N\c2ccc(Oc3ccon3)cc2)n(Cc2ccc(Cl)cc2)c1=O` [Compound I-2460], which IC50 is on record?
The IC50 was 35 nM.
